A word on the viscosity: it is the resistance of a fluid to flow. The mass density is the mass of a sample divided by its volume.

Series [1] in a line: xn = mol fraction of the nth substance listed. The note with it: 101 kPa, Liquid, x2 = 0; for viscosity: Capillary tube (Ostwald / Ubbelohde) method; for mass density: Vibrating tube method.
For series [2] the following is noted: 101 kPa, Liquid; for viscosity: Capillary tube (Ostwald / Ubbelohde) method; for mass density: Vibrating tube method.

The structures appear in SMILES notation. ± gives the expanded uncertainty stated by the source.

Turning to `NCCO` [2-aminoethan-1-ol] + CN(CCO)CCO, the viscosity in series [1] (293.15 K) is given as 23.4 ± 0.95 mPa·s; in series [1] (303.15 K) it was 14.71 ± 0.6 mPa·s; in series [1] (313.15 K) it was 9.77 ± 0.4 mPa·s; in series [1] (323.15 K), 6.83 ± 0.28 mPa·s. Also, the mass density is 1016.3 ± 1 kg/m3 in series [1] (293.15 K), 1008.02 ± 1 kg/m3 in series [1] (303.15 K), 999.98 ± 1 kg/m3 in series [1] (313.15 K) and 991.97 ± 1 kg/m3 in series [1] (323.15 K).
As for `NCCO` [2-aminoethan-1-ol], the viscosity turned out to be 23.4 ± 0.95 mPa·s in series [2] (293.15 K), 14.71 ± 0.6 mPa·s in series [2] (303.15 K), 9.77 ± 0.4 mPa·s in series [2] (313.15 K) and 6.83 ± 0.28 mPa·s in series [2] (323.15 K). For the same molecule, the mass density in series [2] (293.15 K) was determined as 1016.3 ± 1 kg/m3; in series [2] (303.15 K) it was 1008.02 ± 1 kg/m3; in series [2] (313.15 K), 999.98 ± 1 kg/m3; in series [2] (323.15 K) it was 991.97 ± 1 kg/m3.
With `CCO` [ethanol], the viscosity is recorded as 1.17 ± 0.05 mPa·s in series [2] (293.15 K), 0.97 ± 0.04 mPa·s in series [2] (303.15 K), 0.81 ± 0.03 mPa·s in series [2] (313.15 K) and 0.69 ± 0.03 mPa·s in series [2] (323.15 K). Also, the mass density in series [2] (293.15 K) is 788.88 ± 1 kg/m3; in series [2] (303.15 K) it was 781.69 ± 1 kg/m3; in series [2] (313.15 K), 772.3 ± 1 kg/m3; in series [2] (323.15 K), 765.29 ± 1 kg/m3.
Take `CCO` [ethanol] + CN(CCO)CCO: the viscosity amounted to 1.17 ± 0.05 mPa·s in series [1] (293.15 K), 0.97 ± 0.04 mPa·s in series [1] (303.15 K), 0.81 ± 0.03 mPa·s in series [1] (313.15 K) and 0.69 ± 0.03 mPa·s in series [1] (323.15 K). In addition, the mass density in series [1] (293.15 K) is 788.88 ± 1 kg/m3; in series [1] (303.15 K), 781.69 ± 1 kg/m3; in series [1] (313.15 K), 772.3 ± 1 kg/m3; in series [1] (323.15 K) it was 765.29 ± 1 kg/m3.
As to `CN(CCO)CCO` [N-methyldiethanolamine], the viscosity in series [2] (293.15 K) was 103.04 ± 4.3 mPa·s; in series [2] (303.15 K), 57.28 ± 2.3 mPa·s; in series [2] (313.15 K), 33.94 ± 1.4 mPa·s; in series [2] (323.15 K), 21.31 ± 0.87 mPa·s. For the same molecule, the mass density is on record as 1040.5 ± 1 kg/m3 in series [2] (293.15 K), 1032.6 ± 1 kg/m3 in series [2] (303.15 K), 1024.76 ± 1 kg/m3 in series [2] (313.15 K) and 1017.12 ± 1 kg/m3 in series [2] (323.15 K).
Consider `CCO` [ethanol] + NCCO, for which the viscosity in series [1] (293.15 K) was 1.17 ± 0.05 mPa·s; in series [1] (303.15 K) it was 0.97 ± 0.04 mPa·s; in series [1] (313.15 K), 0.81 ± 0.03 mPa·s; in series [1] (323.15 K), 0.69 ± 0.03 mPa·s. For the same molecule, the mass density in series [1] (293.15 K) is reported as 788.88 ± 1 kg/m3; in series [1] (303.15 K), 781.69 ± 1 kg/m3; in series [1] (313.15 K), 772.3 ± 1 kg/m3; in series [1] (323.15 K) it was 765.29 ± 1 kg/m3.

The record behind these values is the NIST ThermoML archive (doi:10.1016/j.jct.2019.02.019).
